Literature values, collected in patent publication US6703367B1, “Methods for treating hot flashes and gynaecomastia” (Praecis Pharmaceuticals Inc., priority 2001, dated 2004).

Key:
[1] = test system: gynaecomastia; details: for men in whom gynaecomastia was reduced: middle aged men
[2] = test system: hot flashes; details: for reduce hot flashes to: progestin therapy

## Tamoxifen
[1]
  men in whom gynaecomastia was reduced: approximately 70%

## CLOMIPHENE
[1]; in vivo
  effect on gynaecomastia: unsuccessful

## clonidine
[2]; oral
  effect on hot flashes, orally administered: varied
[2]; transdermal, hot flashes due to Tamoxifen
  effect on hot flashes, administered transdermally: reduced the frequency and severity of hot flashes

## Medthyldopa
[2]; in vivo
  decrease of hot flashes: 30%

## CC(=O)[C@@]1(O)CC[C@H]2[C@@H]3C[C@H](C)C4=CC(=O)CC[C@]4(C)[C@H]3CC[C@@]21C [Medroxyprgesterone]
[2]
  reduce hot flashes to: 75-100%

## CC(=O)O[C@]1(C(C)=O)CC[C@H]2[C@@H]3C=C(C)C4=CC(=O)CC[C@]4(C)[C@H]3CC[C@@]21C [Megestrol acetate]
[2]
  reduce hot flashes to: 25-85%

## C#C[C@]1(O)CC[C@H]2[C@@H]3CCC4=Cc5oncc5C[C@]4(C)[C@H]3CC[C@@]21C [DANAZOL]
[1]
  men in whom gynaecomastia was reduced: approximately 70%
